Columns and labels:
[1] = test system: CM engrafted zebrafish embryos; experiment: Maximum tolerated dose in CM engrafted zebrafish embryos (ectopic and orthotopic model); assay type: in vivo, Zebrafish (Danio rerio); conditions: light-activated
Procedure: To engage both CM models for testing the efficacy of TLD1433 as a potential new PDT treatment strategy to combat CM growth, first, the MTD of TLD1433 delivered into zebrafish embryos engrafted with CM cells was measured (Table 2) following the same procedure as already described for wild type embryos (Figure 5 and Table 2). Engrafted embryos were more sensitive to light-activated TLD1433 than non-engrafted embryos (Table 2). MTD concentrations of 4.6 nM and 2.3 mM were delivered by WA, IV and RO administration. […] The TLD1433 concentration in these experiments was not increased further as the initial treatment was already at the pre-determined MTD.
For determining the MTD of the WA of the TLD1433 solution in wild type zebrafish, solutions of 2.3 nM, 4.6 nM, 9.2 nM, 11.5 nM, 23 nM were made before the experiment. At 2.5, 3.5, 4.5, 5.5 dpf, TLD1433 was added to the fish water and maintained for 12 h. At 3, 4, 5, 6 dpf, the fish water was refreshed and after 1 h, embryos were exposed to green light for 90 min (520 nm, 21 mW/cm^2, 114 J/cm^2). For the IV and RO administration, TLD1433 solutions (1.15 mM, 2.3 mM, 4.6 mM, 9.2 mM, 11.5 mM) were prepared before the experiment. At 3, 4, 5, 6 dpf, 1nL of TLD1433 was injected via the dorsal vein or the RO site and maintained for 1 h. After each of the 4 injections, the embryos were exposed to green light for 90 min (520 nm, 21 mW/cm^2, 114 J/cm^2). The images of treated and wild type embryos at 6 dpf were taken using a DFC420C camera coupled to a Leica MZ16FA fluorescence microscope. In order to determine the MTD of tumour cell bearing zebrafish, TLD1433 was performed according to the same procedure, delivered by WA, IV and […] administration as described above for the wild type embryos.

CRMM1 cells = experiment: Annexin-V-FITC / Propidium Iodide FACS, CRMM1; assay type: cell-based, Human
Excerpt: Depending on the nature and intracellular localization of a PS, the light dose, and the cell type, PDT is known to provoke either necrosis, apoptosis, or autophagy. In order to investigate the death mechanism induced by green light-activated TLD1433 in CRMM1 and CRMM2 cells, the cells were stained with Annexin V and propidium iodide, and further analysed by fluorescence-activated cell sorting (FACS).
Figure 3 Green light irradiation of TLD1433 induces apoptosis and necrosis in CRMM1 and CRMM2 cells. (A) CRMM1 and (C) CRMM2 were stained with Annexin-V-FITC and Propidium Iodide. The percentages of live, early apoptotic, later apoptotic and necrotic cells in CRMM1 (B) and CRMM2 (D) were counted by FACS. Results are presented as means ± SD from three independent experiments. […]

## Cc1ccnc(-c2cc(C)ccn2)c1.Cc1ccnc(-c2cc(C)ccn2)c1.[Cl-].[Cl-].[Ru+2].c1csc(-c2ccc(-c3ccc(-c4nc5c6cccnc6c6ncccc6c5[nH]4)s3)s2)c1 [TLD1433]
[1]; Intravenous 1 nL
  Maximum Tolerated Dose (MTD): 2.3 mM
[1]; Retro-orbital 1 nL
  Maximum Tolerated Dose (MTD): 2.3 mM
[1]; Water administration
  Maximum Tolerated Dose (MTD): 4.6e-06 mM
CRMM1 cells; CRMM1, dark TLD1433 group
  cell fate by FACS (in words): most cells were found alive
CRMM1 cells; CRMM1, light-activated TLD1433 group
  cell fate by FACS (in words): about half of the cells were found dead

Reference: PMC7139549, “TLD1433 Photosensitizer Inhibits Conjunctival Melanoma Cells in Zebrafish Ectopic and Orthotopic Tumour Models” (Cancers, 2020)
